From US20100069345A1, “Lanthanide-porphyrin complexes as anti-tumor agents” (priority 2005, published 2010)

Assays:
[1] = tested on: multi-drug resistant cell line QGY-TR50; experiment: MTT cell viability assay, QGY-TR50; format: cell-based, human
From the text: (§1) Human cervical epitheloid carcinoma cells (HeLa), human hepatocellular carcinoma cells (HepG2 and Hep3B), human breast cancer cells (MCF-7), human coloadenocarcinoma cells (HCT-8), and normal human lung fibroblast cells (CCD-19Lu) were purchased from American Type Culture Collection (ATCC) Rockville, Md., USA. The human hepatocellular cancinoma cells QGY-7703, and the multi-drug resistant cell line QGY-TR50 derived from QGY-7703, were generously provided by Prof. Yong Xie (The Hong Kong University of Science and Technology, Hong Kong PRC). QGY-TR50 cells were isolated and cultured as described (J. Zhou, S. C. Cheng, D. Luo, Y. Xie Biochem. Biophys. Res. Commun. 2001, 280, 1237-1242). Human nasopharyngeal carcinoma cells (SUNE1 and its cisplatin-resistant variant—CNE2) were derived from poorly differentiated NPC in Chinese patients and were generously provided by Dr. S. W. Tsao (The University of Hong Kong, Hong Kong PRC). Cell culture flasks and 96-well microtitre plates were from Nalge Nunc Int. Culture medium, other medium constituents and phosphate buffer saline (PBS) were obtained by Gibco BRL Rockville, Md., USA. Cell Proliferation kit I (MTT) was purchased from Roche. Mannheim, Germany.

[2] = tested on: human cervical epitheloid carcinoma cells (HeLa); experiment: MTT cell viability assay, HeLa; format: cell-based
From the text: as §1

[3] = Stability by UV-visible in presence of reduced glutathione; format: physicochemical; conditions: 6 mM GSH in DMSO/Tris buffer solution (1:9)
Method: Moreover, concomitant band broadening in spectrum of complex 1 was observed after 24 h. No significant spectral shift and formation of new absorption band were observed. […] Comparing with the spectra of complex 1, the decrease in Soret band intensity of complex 2b is less significant. The intensities are only found to decrease in 2% and 19% after 2 h and 24 h, respectively. Also, there is no significant spectral shift and formation of new absorption band were observed (FIG. 8).

calf thymus DNA = experiment: Absorption titration with calf thymus DNA; format: binding; conditions: Tris buffer
Method: The calf thymus DNA was purchased from Sigma-Aldrich Chemical Co. and was purified by phenol-chloroform extraction. The DNA was dissolved in buffer (5 mM Tris, 5 mM NaCl, pH 7.2). The concentration (per base pair) or calf thymus DNA was determined spectophotometrically on the basic of ε260, 13200 M^−1cm^−1bp.
Absorption Titration. Studying the interaction between drugs and DNA is imperative to pharmaceutical chemistry. Since complexation between a ligand molecule and a nucleic acid leads to optical changes, its binding can be studied using spectroscopic methods like fluorescence and electronic absorption spectroscopy (C. V. Kumar, E. H. Asuncion, J. Am. Chem. Soc. 1993, 115, 8547-8553). The binding interactions of lanthanide (III) porphyrin complexes with calf thymus DNA were investigated using UV-vis spectroscopy and depicted in FIGS. 9 and 10 (selected absorption curves were shown for clear plot). By monitoring wavelengths at 410 nm (complex 1) and 430 nm (complex 2b), successive additions of calf thymus DNA to the respective complexes in Tris buffer solution containing <5% DMSO were done until saturation. Moderate hyprochromicities of 27% and 23% in complexes 1 and 2b were found without significant bathochromic spectral shift. […] The values of binding constant K were calculated from a plot of D/Δεap versus D based on the following equation:
Where D is the concentration of DNA, Δεap=|ΔεA−ΔεB| wherein εA=Aobs/[complex], and Δε=|ΔεB−ΔεF|; εB and εF correspond to the extinction coefficients of DNA-bound lanthanide(III) porphyrin complex adduct and its free complex, respectively. By monitoring absorbance at 410 nm (complex 1) and 430 nm (complex 2b), plots of D/Δεap against D are inserted in FIGS. 9 and 10. Linear curves in two graphs were plotted with slopes of 4.63×10^−5 (complex 1) and 3.60×10^−5 (complex 2b) (both R=0.99).

PARP = experiment: Western blotting analysis, PARP; format: cell-based, human; conditions: HeLa, 2 μM, after the treatment
Method: (§2) Cells were washed in cold phosphate-buffered saline (PBS) at 4° C. and lysed in a buffer containing 0.05 M Tis.HCl (pH 7.5), 0.25 M NaCl, 0.005 M EDTA, 0.05 M NaF, 1 mM DTT and 1% Triton. Cell lysates were collected and the protein concentration of cell lysates was measured using a Protein detection kit (Bio-Rad). Equal amount of proteins was resolved in a 12% SDS-PAGE gel and transferred onto nitrocellulose membranes. The membrane was blocked with a blocking solution (1×TBS, 0.1% Tween-20 with 5% non-fat dry milk) at room temperature for 1 h, and washed three times with washing buffer (1×TBS, 0.1% Tween-20) for 5 min each. The membrane was then incubated with primary antibody (Caspase 3, Bid, PARP and β-Actin respectively) for overnight at 4° C. The membrane was washed three times with washing buffer for 5 min each before incubation with the corresponding secondary antibody (horse anti-mouse IgG or goat anti-rabbit IgG). Membrane was washed again and signals were detected using an ECL detection kit (Amersham Pharmacia Biotech) followed by the exposure to X-ray films (Fujifilm).
(§3) After treatment with complex 1 for different time intervals, the expressions of caspase 3, Bid and PARP were detected by the Western blotting analysis. […] Moreover, treatment with complex 1 leads to a reduction in the level of un-cleaved Bid.

[4] = tested on: cisplatin-resistant variant (CNE2) of human nasopharyngeal carcinoma cells; experiment: MTT cell viability assay, CNE2; format: cell-based
From the text: as §1

Bid = experiment: Western blotting analysis, Bid; format: cell-based, human; conditions: HeLa, 2 μM, 32 h
Method: as §2, §3

[5] = IC50 of cisplatin divided by IC50 of complex

Substance: [Yb2(OEP)2](μ-OH)2 [Complex 1]
- IC50 ratio cisplatin/complex, QGY-TR50 [1, 5]: 60.3
- IC50 ([1]; MTT, 37° C., 48 h, mean ± SD): 540 nM
- IC50 ratio cisplatin/complex, HeLa [2, 5]: 30.2
- IC50 ([2]; MTT, 37° C., 48 h, mean ± SD of three experiments): 470 ± 300 nM
- decrease in Soret band intensity, reduced glutathione, 2 h ([3]; 2 h): 7%
- decrease in Soret band intensity, reduced glutathione, 24 h ([3]; 24 h): 52%
- hyprochromicity on addition of calf thymus DNA (calf thymus DNA; <5% DMSO, until saturation, 410 nm (1), 430 nm (2b)): 27%
- binding constant K with calf thymus DNA (calf thymus DNA; UV-vis absorption titration, 20° C.): (1.59±0.3)×10^6 mol^−1dm^3
- level of cleaved PARP (85 kDa) (PARP): gradual increase
- IC50 ratio cisplatin/complex, CNE2 [4, 5]: 17.2
- IC50 ([4]; MTT, 37° C., 48 h, mean ± SD): 3350 nM
- expression of Bid (Bid): decrease dramatically
